Laboratory results: article PMC6934184, “Selective DNA-PKcs inhibition extends the therapeutic index of localized radiotherapy and chemotherapy” (The Journal of Clinical Investigation, 2019)

Target: T1, SLK (Homo sapiens, UniProt Q9H2G2)
T1 construct: purchased Thermo Fisher Scientific (Life Technologies) SelectScreen
Test: SelectScreen LanthaScreen
Type: binding
Settings: read-out: % displacement
How it was run: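 SelectScreen broad panel; activity (Z'LYTE, Adapta) plus binding formats. ATP: Km app for CSF1R Z'LYTE; 10 for CAMK1 Adapta. Readout = % per kinase.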

T1 sequence (Q9H2G2 whole entry): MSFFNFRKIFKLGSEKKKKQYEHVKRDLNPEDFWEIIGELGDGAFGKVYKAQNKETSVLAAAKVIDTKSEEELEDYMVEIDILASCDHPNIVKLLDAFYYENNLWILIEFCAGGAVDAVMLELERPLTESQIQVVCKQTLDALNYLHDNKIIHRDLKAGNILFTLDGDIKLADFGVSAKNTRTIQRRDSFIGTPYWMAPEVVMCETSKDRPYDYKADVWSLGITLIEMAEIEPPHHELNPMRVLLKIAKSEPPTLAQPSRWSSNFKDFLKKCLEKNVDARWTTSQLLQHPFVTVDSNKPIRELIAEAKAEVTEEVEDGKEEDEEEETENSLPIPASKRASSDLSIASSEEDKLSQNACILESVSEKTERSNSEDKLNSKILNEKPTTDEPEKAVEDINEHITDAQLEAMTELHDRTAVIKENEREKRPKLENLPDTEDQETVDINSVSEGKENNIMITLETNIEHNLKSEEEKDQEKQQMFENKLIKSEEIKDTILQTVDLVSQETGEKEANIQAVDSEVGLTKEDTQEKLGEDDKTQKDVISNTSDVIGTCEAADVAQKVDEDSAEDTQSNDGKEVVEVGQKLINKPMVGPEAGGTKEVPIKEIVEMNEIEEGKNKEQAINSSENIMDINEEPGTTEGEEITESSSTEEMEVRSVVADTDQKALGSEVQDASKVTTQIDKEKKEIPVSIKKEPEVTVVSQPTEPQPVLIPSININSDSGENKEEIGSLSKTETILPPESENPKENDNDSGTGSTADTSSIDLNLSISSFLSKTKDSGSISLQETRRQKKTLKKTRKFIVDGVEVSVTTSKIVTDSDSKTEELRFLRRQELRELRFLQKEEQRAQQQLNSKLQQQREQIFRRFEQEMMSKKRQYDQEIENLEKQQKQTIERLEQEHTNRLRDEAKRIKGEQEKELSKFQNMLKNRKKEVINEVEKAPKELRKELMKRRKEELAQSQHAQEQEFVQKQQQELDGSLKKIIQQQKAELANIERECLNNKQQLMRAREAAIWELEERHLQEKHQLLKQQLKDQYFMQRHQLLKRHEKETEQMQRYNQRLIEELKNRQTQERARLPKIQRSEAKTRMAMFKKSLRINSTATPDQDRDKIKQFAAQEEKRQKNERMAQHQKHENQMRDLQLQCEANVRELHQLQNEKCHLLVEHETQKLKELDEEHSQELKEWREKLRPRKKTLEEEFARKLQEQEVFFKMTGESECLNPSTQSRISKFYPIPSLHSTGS

CN(C(=O)CN1CCOCC1)c1ccc2sc3c(-c4cccc5c(=O)cc(N6CC7CCC(C6)O7)oc45)cccc3c2c1 [NU5455]
inhibition at 1 µM: 1.5%
